US20220387369A1, “Prooxidative chain-transfer agents for use in the treatment of malignant tumour or infectious diseases” (Universitätsmedizin der Johannes Gutenberg-Universität Mainz, priority 2019, published 2022)

What was measured:
C. elegans [1] = assay: Toxicity (survival) in nematodes in vivo; set-up: species or system Caenorhabditis elegans; details: 0.5 mM in minimum diet with varying amounts of coliform bacteria, oral, FIG. 4 (a)
Protocol: Caenorhabditis elegans N2 Bristol strain animals were expanded and cultivated at 20° C. on nematode growth medium (NGM) plates in the presence of Escherichia coli strain HB101 as food source following standard protocols (Mocko et al., Neurobiol Dis 40:120-129, 2010). For the toxicity experiments, synchronized adult worms aged 2 days were maintained in liquid culture medium (S-Basal medium supplemented with 5 mg/L cholesterol, 100 mg/L streptomycin, 100 mg/L fluorodeoxyuridine (FUDR)) to which varying amounts of Escherichia coli were added (measured as optical density (OD) at 600 nm wavelength) as described (Mair et al., PLoS One 4:e4535, 2009). Worms distributed in 48-well plates were administered with 500 μM n-dodecyl thiol (12-SH) dissolved in ethanol (final concentration: 1%) and analyzed, after the indicated time, for survival by visual inspection and mechanical stimulation (nose-touch assay) as detailed (Mocko et al., Neurobiol Dis 40:120-129, 2010).

[2] = tested on: Primary human fibroblasts; assay: 8-Isoprostane release from diploid human fibroblasts; format: cell-based; details: 100 μM, medium with 10% fetal calf serum, time course, FIG. 3C (a)
Protocol: (§1) (FIG. 3A) Normal human diploid fibroblasts were cultivated under standard conditions stimulating cell division, i.e. with 10% serum in the medium. Specifically, the cells were grown in high-glucose DMEM (Dulbecco's Modified Eagle's Medium) supplemented with 10% heat-inactivated FCS (fetal calf serum), 1× non-essential amino acid (NEAA) supplement, 1 mM pyruvate, 100 mg/L streptomycin and 100 U/mL penicillin. For cultivation, the cells were maintained at 37° C. in a humidified atmosphere containing 5% CO2. The cells were generally passaged on reaching approximately 90% confluence and were seeded, after counting of the PDLs (population doublings), in new dishes at a density of 10^6 cells per dish in 100 mm dishes, or at a density of 10^4 cells per well in 96-well plates. Cells were used for experiments at PDL 25-30. All cell culture reagents were from Invitrogen, Carlsbad, Calif., USA.
(FIG. 3C) 8-Isoprostanes. Cells cultivated in 96-well plates for 24 h were administered with 100 μM n-dodecyl thiol (12-SH) for the indicated time before removing the cell culture supernatant for 8-isoprostane analysis. 8-Isoprostane analysis was achieved by a commercial enzyme immunoassay (Cayman Chemicals, Ann Arbor, Mich., USA), which was conducted as detailed in the manufacturers instructions.

Drosophila melanogaster = assay: Ultrastructural effects in fruit flies in vivo (electron microscopy); details: 1 mM in the feed, electron micrographs
Protocol: Male Drosophila melanogaster (strain Oregon-R) were maintained at 25° C. in plastic vials covered with air-permeable lids and received standard food (50 g/L refined household sugar, 50 g/L baker's yeast, and 20 g/L agar powder). The medium was boiled under stirring, adding the following supplements at approximately 70° C.: 3 g/L methylparabene (dissolved in ethanol, final concentration: 0.15%), 3 mL/L propionic acid and the appropriate amount of n-dodecyl thiol (12-SH) dissolved in ethanol (final concentration: 0.1%). Synchronized male flies were transferred into new vials and scored for survival every other day. Treatment started on day 2 of adulthood. Electron microscopy. Flies harvested after 50 days of treatment were cryofixed by plunge freezing, cut into head, thorax and abdomen before chemical fixation for 90 min with 3% glutaraldehyde and 3% formaldehyde in PBS. The tissues were washed, fixed with 2% OsO4, washed again, dehydrated with rising concentrations of ethanol, transitionally stabilized with propylene oxide and embedded into epoxy resin essentially as described (Bozzola and Russel, Electron Microscopy: Jones and Bartlett Publishers, Inc., Sudbury, M A, 1999). The polymerized blocks were mounted, trimmed, and sectioned in an ultramicrotome before transfer onto electron microscopy grids. Images were acquired under standard conditions in a Tecnai Transmission Electron Microscope (FEI Company, Hillsboro, Oreg., USA).

C. elegans [3] = assay: 8-Isoprostane in homogenates of treated nematodes; format: in vivo, Caenorhabditis elegans; details: 0.1 mM or 0.5 mM, FIG. 4 (b)
Protocol: 8-Isoprostanes. Synchronized, 4-day-old adult worms distributed in cell culture flasks were administered with the indicated concentration of n-dodecyl thiol (12-SH) dissolved in ethanol (final concentration: 1%) and cultivated for 6 h or 48 has indicated. The worms were collected by centrifugation at 1200 g, washed twice with S-Basal medium, and once with DMEM medium containing 100 μM butylated hydroxytoluene (BHT). The worms were then homogenized in DMEM/BHT by sonication (3×20 s at 30 kHz on ice). Equal amounts of protein of the resulting homogenate (as per bicinchoninic acid assay from Pierce, Rockford, Ill., USA) were probed for the presence of 8-isoprostane by a commercial enzyme immunoassay (Cayman Chemicals, Ann Arbor, Mich., USA) following the manufacturer's instructions.

[4] = tested on: Native lipid membranes from rat brain; assay: Lipid peroxidation (malondialdehyde/TBARS) in native rat brain membranes; format: biochemical
Protocol: Native biological membranes from adult rat brain were prepared by differential centrifugation as described (Moosmann and Behl, Proc Nati Acad Sci USA 96:8867-8872, 1999). Samples containing 0.5 mg/ml total protein (as per bicinchoninic acid assay from Pierce, Rockford, Ill., USA) were solubilized by brief sonication in PBS (phosphate-buffered saline) and administered with the indicated concentrations of n-dodecyl thiol (12-SH; from Sigma-Aldrich, St. Louis, Mo., USA) dissolved in ethanol (final concentration: 0.1%). Subsequently, 10 μM Fe^2+/200 μM ascorbate were added as radical-initiating mix; controls received vehicle (water). After the indicated time, the reaction was stopped by adding 2.5 volumes of 5% trichloroacetic acid in 1 M acetic acid, followed by centrifugation (10,000 g for 10 min). Subsequently, thiobarbituric acid-reactive substances (TBARS) as marker of lipid peroxidation were quantified fluorimetrically as detailed before (Hajieva et al., J Neurochem 110:118-132, 2009).

HT22 cells = assay: Cytotoxic activity in cultivated HT22 cells (MTT), normoxic and hypoxic; format: cell-based, mouse; details: 1 day or 3 days, 20% O2 vs 1% O2, FIG. 2B
Protocol: (FIG. 2A) HT22 are a widely used, immortalized neuronal cell line that has been generated by transforming mouse neuronal tissue with the oncogenic SV40 T-antigen (Morimoto and Koshland, Neuron 5:875-880, 1990). HT22 cells were cultivated in high-glucose DMEM (Dulbecco's Modified Eagle's Medium) supplemented with 10% heat-inactivated FCS (fetal calf serum), 1 mM pyruvate, 100 mg/L streptomycin and 100 U/mL penicillin. For routine culture, cells were grown in 100 mm dishes at 37° C. in a humidified atmosphere containing 5% CO2. They were passaged three times per week on reaching approximately 90% confluence and splitted 1:10. All cell culture reagents were from Invitrogen, Carlsbad, Calif., USA.
For cell survival experiments, HT22 cells were seeded into 96-well plates at a density of ˜5000 cells per well in 0.1 mL medium. After 24 h cultivation, the cells were administered with the indicated concentrations of the tested compounds (n-octyl thiol (8-SH) or n-dodecyl thiol (12-SH)) dissolved in ethanol (final concentration: 1%). After 1 day or 3 days of incubation as indicated, cell survival was analyzed by colorimetric MTT reduction tests (MTT is 3-(4,5-dimethylthiazol-2-yl-)-2,5 diphenyltetrazolium bromide) which were performed exactly as described (Hajieva et al., J Neurochem 110:118-132, 2009). […]

[5] = tested on: Primary human fibroblasts; assay: Protein polyubiquitination in diploid human fibroblasts (Western blot); format: cell-based; details: 500 μM, medium with 10% fetal calf serum, time course, FIG. 3C (b)
Protocol: as §1
Protein polyubiquitination. Cells cultivated in 100 mm dishes for 24 h were administered with 500 μM n-dodecyl thiol (12-SH) for the indicated time before harvesting of the cells in lysis buffer (50 mM Tris-HCl, pH 7.4, 10% sucrose, 1 mM EDTA, 1 mM EGTA, 1 mM Na3VO4, 1 mM NaF, 1× protease inhibitor cocktail from Sigma-Aldrich, St. Louis, Mo., USA) followed by brief sonication and denaturation at 95° C. for 2 min. […] Densitometric quantification was performed using automated image analysis software.

CCCCCCCCCCCCS [n-dodecylthiol]
worms killed / toxicity in vivo (C. elegans [1]): led to death after a few days | concentration of released lipid peroxidation marker 8-isoprostane [2]: increased significantly within a few hours | myofibrillar structure (Drosophila melanogaster; FIG. 5A): intact | ultrastructural effect on muscle mitochondria (Drosophila melanogaster; FIG. 5A): intramitochondrial, spiral multilamellar lesions | ultrastructural lesions in the nervous system (a, b) and photoreceptor cells (c) (Drosophila melanogaster; FIG. 5B): spiral multilamellar lesions of mitochondrial origin | other damage phenotype, nervous system (b) (Drosophila melanogaster; FIG. 5B (b)): vacuolization and electron-dense aggregation | other damage phenotype, photoreceptor cells (c) (Drosophila melanogaster; FIG. 5B (c)): bright lipofuscin accumulation | concentration of lipid peroxidation marker 8-isoprostane in worm homogenates (C. elegans [3]): increased to a constant maximum after only 6 h | extent of lipid peroxidation (as malondialdehyde) ([4]; absence of any radical initiation ("dead membranes"), FIG. 1 (a)): absence of any effect | extent of lipid peroxidation (as malondialdehyde) ([4]; low level of free radical initiator (iron/ascorbate) added, FIG. 1 (b)): massively amplified | cytotoxic effectiveness under hypoxic versus normal oxygen conditions (HT22 cells): not compromised by hypoxic conditions | amount of polyubiquitinated proteins in the cell (marker of protein damage) [5]: increased significantly within a few hours
